{"source": "patent US11618738B2", "about": "“Compound and application thereof in treating inflammation or inflammation-related diseases” (SICHUAN CENTER FOR TRANSLATIONAL MEDICINE OF TRADITIONAL …, priority 2017, dated 2023)", "key": {"[1]": {"system": "10% egg white-induced foot swelling in rats", "assay": "10% egg white-induced foot swelling in rats", "assay_type": "in vivo", "settings": "for Foot swelling: mean ± SD", "source_text": "Injecting 10% egg white into rat paws can cause early acute inflammation such as redness, heat, swelling, and pain in rat paws. In this experiment, the anti-inflammatory effects of UTLOH series compounds were observed by the degree of swelling of the paws of rats after inflammation.\nSPF grade SD rats, half female and half male (100-120 g/mouse) were randomly grouped according to body weight. Each group was given the corresponding drugs by gavage, once a day, for 3 consecutive days, with a gavage volume of 1 ml/100 g. Before the experiment, the ankle joint of the right hind foot of each group of rats was marked, and the foot volume of each group of rats was measured twice with a rat foot volume meter, and the average of the two times was taken as the […]. 30 minutes after the last administration, the rats in each group were given a subcutaneous needle in the right hind paw, and injected with 10% fresh egg white solution 0.1 ml/mouse to cause inflammation, establishing a rat model of paw swelling. The post-inflamed foot volume in mice was measured twice at 1 h, 2 h, 3 h, and 4 h after inflammation, and the average of the two times was taken as the post-inflamed foot volume. The normal group was given 1 ml/100 g volume of 0.5% CMC-Na solution by gavage according to body weight."}, "[2]": {"system": "xylene-induced ear swelling in mice", "assay": "Xylene-induced ear swelling in mice", "assay_type": "in vivo", "settings": "for Swelling rate (%): 20 minutes after xylene, mean ± SD", "source_text": "Xylene applied to the ears of mice can cause acute inflammatory swelling of the ears of the mice. The anti-inflammatory effects of the tested drugs were observed by the degree of swelling of the ears of the mice after the inflammation.\nTaking Kunming mice, SPF grade, half male and half […] (18-22 g/mouse) and randomly grouping them according to body weight. The normal control group was given 0.5% CMC-Na suspension by gavage administration, and the other groups were given corresponding drugs (0.2 ml/10 g) for 3 consecutive days, once a day. 0.5 h after the last administration, 0.02 ml of xylene was applied to the right auricle of each group of mice, and the left side was not applied as a control, establishing a mouse ear swelling model. 20 minutes after the inflammation, the mice were killed by cervical dislocation. Both ears were cut along the baseline of the auricle, and the discs on the same part of the left and right ears were punched out with a punch (6 mm of diameter) and weighed."}, "NO induced by LPS": {"system": "NO induced by LPS", "assay": "Inhibition of LPS-induced NO in RAW 264.7 cells (Greiss reagent)", "assay_type": "cell-based, mice", "settings": "Mus musculus, RAW264.7; same method as Table 1; given as 10-50 μM, or <10 μM; read-out: IC50 of NO", "source_text": "Nitric oxide (NO) is a signaling molecule that plays a key role in the pathogenesis of inflammation. Under abnormal conditions, NO is a pro-inflammatory mediator that causes inflammation due to its overproduction. Therefore, the regulation of elevated NO levels by stimulants (such as LPS) has been widely used as a screening method to identify anti-inflammatory drugs. Since NO is oxidized into nitrite and nitrate, the determination of total NO2^−/NO3^− is a conventional method for determining NO levels, and Griess reagent is usually used in this type of experiment.\n(§1) This example is taken from a previous publication by Song et al.^[1]. In brief, mice RAW 264.7 cells were treated with increasing doses of each test compound at 37° C. for 1 hour. Thereafter, the cells were attacked with 20 μL/well of LPS (equivalent to a final concentration of 100 ng/mL). The cells were further incubated overnight at 37° C. A commercial ELISA assay kit obtained from R&D Systems (Minneapolis, Minn.) was used to determine the level of PGE2 in the supernatant, and three parallel experiments were performed. The optical density of each well was measured using a BioTek Epoch microplate reader (Winooski, Vt.) set to 450 nm. The NO study was performed in a similar manner, but Greiss reagent was used to monitor the level of NO, and the results were read at 550 nm."}, "hot plate pain in mice": {"system": "hot plate pain in mice", "assay": "Hot plate pain threshold in mice", "assay_type": "in vivo", "settings": "for Percentage increase in pain threshold (%): mean ± SD", "method": "The hot plate method uses a certain intensity of warm heat to stimulate mice to produce pain reaction. This experiment observes the analgesic effect of UTLOH series compounds.\nFemale SPF-grade Kunming mice (18-22 g/mouse) were put in a hot plate apparatus at a temperature of 55±0.5° C., and the pain threshold of the mice was measured. The measurement was performed twice, and the measurement was performed every 5 minutes. Taking the mouse licking hind feet as the observation index. The mice with pain response within 30 s were selected as experimental animals. The pre-selected qualified mice were randomly grouped according to their body weight. The blank group was intraperitoneally injected with 0.2 ml/10 g body weight of normal saline, and the other groups were intraperitoneally injected with corresponding drugs. The pain threshold was measured 30 and 60 minutes after the administration. If the mouse had no pain within 60 seconds, it was taken out immediately and calculated at 60 seconds."}, "[3]": {"system": "writhing response of mice with acetic acid", "assay": "Writhing response of mice induced by intraperitoneal glacial acetic acid", "assay_type": "in vivo", "settings": "for Writhing reaction inhibition percentage (%): mean ± SD", "method": "After glacial acetic acid is injected into the abdominal cavity of mice, it can cause inflammatory pain and cause writhing reaction in mice. In this experiment, the analgesic effects of UTLOH compounds were observed by the number of writhing times in mice after intraperitoneal injection of glacial acetic acid.\nTaking 100 KM mice, SPF grade, half male and half […] (18-22 g/mouse), and randomly grouping them according to their body weight. Except that the blank control group was given 0.5% CMC-Na suspension by gavage administration, the other groups were given the corresponding drugs by gavage for 3 continuous days, once a day, with a gavage volume of 0.2 ml/10 g. 30 minutes after the administration on the 3rd day, each group of mice was intraperitoneally injected with 0.6% glacial acetic acid, 0.1 ml/10 g, to create writhing reaction model in mice."}, "PGE2 induced by LPS": {"system": "PGE2 induced by LPS", "assay": "Inhibition of LPS-induced PGE2 in RAW 264.7 cells (ELISA)", "assay_type": "cell-based, mice", "settings": "same experimental method as Table 1", "method": "as §1"}}}
{"smiles": "Cc1cc(C(=O)Nc2ccc(O)cc2O)no1", "note": "[UTLOH-4e]", "values": [{"measurement": "Foot swelling", "setting": "[1]; 10 mg/kg gavage once a day for 3 days, 1 h after inflammation", "result": "0.67 ± 0.15", "unit": "mL"}, {"measurement": "Foot swelling", "setting": "[1]; 10 mg/kg gavage once a day for 3 days, 2 h after inflammation", "result": "0.66 ± 0.15", "unit": "mL"}, {"measurement": "Foot swelling", "setting": "[1]; 10 mg/kg gavage once a day for 3 days, 3 h after inflammation", "result": "0.60 ± 0.16", "unit": "mL"}, {"measurement": "Foot swelling", "setting": "[1]; 10 mg/kg gavage once a day for 3 days, 4 h after inflammation", "result": "0.44 ± 0.07", "unit": "mL"}, {"measurement": "Foot swelling", "setting": "[1]; 20 mg/kg gavage once a day for 3 days, 1 h after inflammation", "result": "0.69 ± 0.08", "unit": "mL"}, {"measurement": "Foot swelling", "setting": "[1]; 20 mg/kg gavage once a day for 3 days, 2 h after inflammation", "result": "0.55 ± 0.13", "unit": "mL"}, {"measurement": "Foot swelling", "setting": "[1]; 20 mg/kg gavage once a day for 3 days, 3 h after inflammation", "result": "0.51 ± 0.09", "unit": "mL"}, {"measurement": "Foot swelling", "setting": "[1]; 20 mg/kg gavage once a day for 3 days, 4 h after inflammation", "result": "0.38 ± 0.12", "unit": "mL"}, {"measurement": "Foot swelling", "setting": "[1]; 40 mg/kg gavage once a day for 3 days, 1 h after inflammation", "result": "0.69 ± 0.13", "unit": "mL"}, {"measurement": "Foot swelling", "setting": "[1]; 40 mg/kg gavage once a day for 3 days, 2 h after inflammation", "result": "0.57 ± 0.17", "unit": "mL"}, {"measurement": "Foot swelling", "setting": "[1]; 40 mg/kg gavage once a day for 3 days, 3 h after inflammation", "result": "0.49 ± 0.15", "unit": "mL"}, {"measurement": "Foot swelling", "setting": "[1]; 40 mg/kg gavage once a day for 3 days, 4 h after inflammation", "result": "0.45 ± 0.16", "unit": "mL"}, {"measurement": "foot swelling degree compared with the normal group (in words)", "setting": "[1]; low-dose group, 1 h after inflammation", "result": "significantly reduced"}, {"measurement": "foot swelling degree compared with the normal group (in words)", "setting": "[1]; medium-dose group and high-dose group, 1 h, 2 h and 3 h after inflammation", "result": "significantly reduced"}, {"measurement": "Swelling rate (%)", "setting": "[2]; 6.25 mg/kg once a day for 3 days", "result": "53.22 ± 28.01", "unit": "%"}, {"measurement": "Swelling rate (%)", "setting": "[2]; 12.5 mg/kg once a day for 3 days", "result": "42.98 ± 23.60", "unit": "%"}, {"measurement": "Swelling rate (%)", "setting": "[2]; 25 mg/kg once a day for 3 days", "result": "41.29 ± 21.75", "unit": "%"}, {"measurement": "dose dependence of ear swelling rate (in words)", "setting": "[2]; the higher the dose, the lower the ear swelling rate", "result": "good dose-dependent"}, {"measurement": "ear swelling rate versus normal group (in words)", "setting": "[2]; the three dose groups (6.25, 12.5, 25 mg/kg)", "result": "significantly lower"}, {"measurement": "IC50", "setting": "NO induced by LPS", "result": "≤ 50", "unit": "µM"}, {"measurement": "percentage increase in the pain threshold, hot plate (in words)", "setting": "hot plate pain in mice; 25 mg/kg and 200 mg/kg, 30 minutes after administration", "result": "significantly reduce"}, {"measurement": "Percentage increase in pain threshold (%)", "setting": "hot plate pain in mice; 25 mg/kg intraperitoneal, 30 min after administration", "result": "−17.71 ± 38.50", "unit": "%"}, {"measurement": "Percentage increase in pain threshold (%)", "setting": "hot plate pain in mice; 25 mg/kg intraperitoneal, 60 min after administration", "result": "−2.76 ± 34.01", "unit": "%"}, {"measurement": "Percentage increase in pain threshold (%)", "setting": "hot plate pain in mice; 50 mg/kg intraperitoneal, 30 min after administration", "result": "−3.15 ± 46.73", "unit": "%"}, {"measurement": "Percentage increase in pain threshold (%)", "setting": "hot plate pain in mice; 50 mg/kg intraperitoneal, 60 min after administration", "result": "8.36 ± 84.14", "unit": "%"}, {"measurement": "Percentage increase in pain threshold (%)", "setting": "hot plate pain in mice; 100 mg/kg intraperitoneal, 30 min after administration", "result": "15.50 ± 103.74", "unit": "%"}, {"measurement": "Percentage increase in pain threshold (%)", "setting": "hot plate pain in mice; 100 mg/kg intraperitoneal, 60 min after administration", "result": "−11.18 ± 85.76", "unit": "%"}, {"measurement": "Percentage increase in pain threshold (%)", "setting": "hot plate pain in mice; 200 mg/kg intraperitoneal, 30 min after administration", "result": "−28.73 ± 28.36", "unit": "%"}, {"measurement": "Percentage increase in pain threshold (%)", "setting": "hot plate pain in mice; 200 mg/kg intraperitoneal, 60 min after administration", "result": "−16.72 ± 40.12", "unit": "%"}, {"measurement": "Writhing reaction inhibition percentage (%)", "setting": "[3]; 25 mg/kg gavage once a day for 3 days", "result": "36.52 ± 10.08", "unit": "%"}, {"measurement": "Writhing reaction inhibition percentage (%)", "setting": "[3]; 50 mg/kg gavage once a day for 3 days", "result": "35.63 ± 17.03", "unit": "%"}, {"measurement": "Writhing reaction inhibition percentage (%)", "setting": "[3]; 100 mg/kg gavage once a day for 3 days", "result": "39.54 ± 15.18", "unit": "%"}, {"measurement": "Writhing reaction inhibition percentage (%)", "setting": "[3]; 200 mg/kg gavage once a day for 3 days", "result": "30.14 ± 17.18", "unit": "%"}, {"measurement": "writhing response in mice induced by acetic acid (in words)", "setting": "[3]; the four dose groups (25-200 mg/kg)", "result": "significantly inhibit"}, {"measurement": "PGE2 inhibition rate (in words)", "setting": "PGE2 induced by LPS", "result": "very good"}]}
